Values belong to the molecule of their own block, whether it stands above or below them.
Experiments:
HeLa = experiment: MTT in vitro cytotoxicity assay, HeLa; type: cell-based; details: Homo sapiens, 48 h
Description: (§1) Roswell Park Memorial Institute Medium (RPMI-1640) was used to culture BEL-7402 and SGC-7901 cell lines; and A549, HeLa and LO2 cells were cultured in Dulbecco’s Modified Eagle’s Medium (DMEM) containing 10% fetal bovine serum (FBS). Cell passage experiments were performed with trypsin every 2 days to maintain exponential growth. All cells were cultured until they reached logarithmic growth phase, unless specifically noted.
(§2) The cytotoxicity test was carried out according to a method described in the literature. The cells were seeded into 96-well micro-assay culture plates and grown overnight in a 5% CO2 incubator at 37 °C. Then, the cells were treated with gradient concentrations of the compounds when the cells grew to 60–70%. At 48 h posttreatment, the medium was removed and MTT solution was added. After 4 h, the absorbance at 490 nm was measured with a microplate reader. The IC50 values were calculated by SPSS (Statistical Product and Service Solutions) software.

SGC-7901 cells [1] = experiment: Intracellular GSH assay; type: cell-based, human; details: SGC-7901, IC50 concentrations, 24 h
Description: (§3) After incubation with IC50 concentrations of 3b and 3c for 24 h, SGC-7901cells were lysed. The lysate was centrifuged for 15 min to collect the supernatant. The protein concentration was determined using a BCA Protein Assay Kit (Beyotime, Shanghai, China). A lipid peroxidation MDA assay kit (Beyotime, Shanghai, China) was used to detect MDA content, and a GSH and GSSG Assay Kit was used to detect intracellular GSH. SGC-7901 cells were incubated with IC50 concentrations of 3b and 3c for 24 h. Afterwards, the cells were lysed by the freeze-thaw method, and the lysate was centrifuged for 5 min to collect the supernatant. The absorbance was measured at 412 nm with a microplate reader.

[2] = pKa by potentiometric titration; type: physicochemical; details: aqueous dimethyl sulfoxide (30% DMSO), 30% dimethyl sulfoxide, 0.15 M KCl
Description: The pKa values of the compounds were determined by potentiometric titration using a pH meter (Basic pH Meter PB-10, Sartorius) calibrated with standard buffers of pH 4.01, 6.86 and 9.18 [26]. The compounds were dissolved in aqueous dimethyl sulfoxide (30% dimethyl sulfoxide) at constant ionic strength (0.15 M KCl). The solution was pre-acidified to approximately pH = 2 with 0.24 M HCl, and titrated until pH = 12 with 0.06 M KOH.

LO2 = experiment: MTT in vitro cytotoxicity assay, normal cell line LO2; type: cell-based; details: Homo sapiens, L02, 48 h
Description: as §1, §2

[3] = Partition coefficient by shake flask method; type: physicochemical; details: octanol / phosphate buffer (0.129 M NaCl, pH = 7.4)
Description: Partition coefficients of compounds in octanol and phosphate buffer (0.129 M NaCl, pH = 7.4) were measured as described by Owellen and coworkers. The concentrations of the compounds in the octanol and phosphate buffer phases were determined three times using a UV/Vis spectrophotometer. The partition coefficients were calculated from the ratio Coct/CPBS, where Coct and CPBS were the concentrations of the compound in the octanol and phosphate buffer, respectively.

calf thymus DNA (CT-DNA) [4] = experiment: EB-competitive binding, luminescence titration; details: EB-CT-DNA (DNA:EB = 1.25:1), compounds 6.62–50 μM
Description: We used ethidium bromide (EB)-competing binding experiments to investigate the binding mode between the compounds and CT-DNA. It is well known that EB combines DNA molecules through a classic intercalative mode. Maintaining the DNA-EB solution concentration (DNA:EB = 1.25:1) and varying the concentrations of compounds (6.62–50 μM), the spectra were recorded after 5 min. The Stern-Volmer constants (Ksv) were calculated using the following Equation (3):F0/F = 1 + Ksv [Q](3) where F0 and F were the fluorescence intensities of the EB-CT DNA solution at 550–700 nm in the absence and presence of the compounds, respectively. [Q] was the concentration of compounds. In plots of F0/F versus [Q], Ksv was given by the ratio of the slope to the intercept.

calf thymus DNA (CT-DNA) [5] = experiment: Viscosity experiments with CT-DNA; type: binding; details: 25 (±0.1) °C, [DNA] = 200 μM, compounds 0 to 90 μM
Description: An ubberhold viscometer was used to measure the viscosity of the CT-DNA solution in the absence and presence of compounds, and the temperature was maintained at 25 ± 0.1 °C. The concentration of CT-DNA was 200 μM, and the concentrations of the compounds varied from 0 to 90 μM. The flow times were recorded with a digital stopwatch; each sample was measured three times to get the average time.

SGC-7901 cells [6] = experiment: Cell cycle arrest by flow cytometry (PI); type: cell-based, human; details: SGC-7901, IC50 concentrations, 24 h
Description: The cell cycle arrest was carried out using a method described in the literature. Briefly, SGC-7901 cells were treated with IC50 concentrations of compounds for 24 h. Then, the cells were harvested and fixed overnight in 70% ethanol at 4 °C. Next, the permeabilized cells were stained with PI/RNase buffer and the DNA content was determined on a flow cytometer. The results were analyzed by ModFit LT 4.0 (Verity Software House, Topsham, ME, USA).

SGC-7901 cells [7] = experiment: Cellular uptake (DAPI, fluorescence microscope); type: cell-based, human; details: SGC-7901, IC50 concentrations, 24 h
Description: Cellular uptake studies were performed according to a method described in the literature. SGC-7901 cells were placed in 24-well microassay culture plates and grown overnight at 37 in a 5% CO2 incubator. The compounds tested were then added to the wells. […] Upon completion of incubation, the wells were washed three times with phosphate buffered saline (PBS). After moving the culture medium, the cells were stained with 2-(4-amidinophenyl)-6-indolecarbamidine dihydrochloride (DAPI) and observed under fluorescence microscope.

SGC-7901 cells [8] = experiment: Mitochondrial membrane potential assay (JC-1); type: cell-based, human; details: SGC-7901, IC50 concentrations, 24 h; control 5.85
Description: SGC-7901 cells were treated with IC50 concentrations of the compounds in 12-well plates for 24 h and were washed three times with cold PBS. Then, the cells were stained with 1 μg/mL JC-1 for 30 min at 37 °C in the dark. After that, the cells were washed twice with ice-cold PBS to remove residual stain and imaged under the ImageXpress Micro XLS system (MD company, San Jose, CA, USA).

P38 MAPK = experiment: Western blot of P38 MAPK expression; type: cell-based, human; details: SGC-7901, IC50 concentrations, 24 h
Description: SGC-7901 cells were seeded in six-well plates for 24 h and incubated with IC50 concentrations of the compounds in the presence of 10% fetal bovine serum (FBS). The cells were then harvested in lysis buffer. After sonication, the samples were centrifuged for 20 min at 13,000× g. The protein concentration of the supernatant was determined by BCA (bicinchoninic acid) assay. Sodium dodecyl sulfate–polyacrylamide gel electrophoresis was carried out with loading equal amounts of proteins per lane. The gels were then transferred to poly (vinylidene difluoride) membranes (Millipore, Billerica, MA, USA) and blocked with 5% nonfat milk in TBST (20 mM Tris-HCl, 150 mM NaCl, 0.05% Tween 20, pH 8.0, Tween: polyoxyethylene monolaurate sorbaitan) buffer for 3 h. The polyvinylidene difluoride membranes were washed four times with TBST (4 × 10 min) and incubated with primary antibody solution at 4 °C overnight. They were then washed four times with TBST for a total of 30 min. The secondary antibodies were then conjugated with horseradish peroxidase (1:5000 dilution) for 70 min at room temperature and washed four times with TBST. The blots were visualized with the Amersham ECL ([…]) and western blotting detection reagents according to the manufacturer’s instructions.

A549 = experiment: MTT in vitro cytotoxicity assay, A549; type: cell-based; details: Homo sapiens, 48 h
Description: as §1, §2

SGC-7901 = experiment: MTT in vitro cytotoxicity assay, SGC-7901; type: cell-based; details: Homo sapiens, 48 h
Description: as §1, §2

SGC-7901 cells [9] = experiment: Intracellular MDA assay; type: cell-based, human; details: SGC-7901, IC50 concentrations, 24 h
Description: as §3

SGC-7901 cells [10] = experiment: ATP measurement; type: cell-based, human; details: SGC-7901, IC50 concentrations, 24 h
Description: The SGC-7901 cells were cultured in six-well plates and treated with IC50 concentrations of 3b and 3c for 24 h. The cells were lysed for 10 min and centrifuged to obtain the supernatant. The prepared ATP detection working solution was added into the supernatant, 5 min late, the RLU value was measured.

[11] = Stability in PBS by UV-Vis spectra; type: physicochemical
Text: The stability of 3b and 3c in PBS was studied by UV-Vis spectra.

CRT, HSP70 and HMGB1 = experiment: Immunostaining of CRT, HSP70 and HMGB1 (immunogenic cell death); type: cell-based, human; details: SGC-7901, IC50 concentrations, 24 h
Description: The SGC-7901 cells were cultured in 12-well plates and treated with IC50 concentrations of 3b and 3c for 24 h. The cells were fixed with 75% alcohol, and then washed and incubated with immunostaining blocker for 1 h. The primary antibody CRT Antibody, HSP70 Antibody and HMGB1 antibody were incubated for 12 h and then the cells were washed three times with PBS. Next, the secondary antibody FITC-labeled Goat Anti-Rabbit IgG was incubated in darkness for 1 h. The cells were washed three times with PBS. Finally, the nuclei were stained with Hoechst and photographed under Micro XLS System (MD company, San Jose, CA, USA).

SGC-7901 cells [12] = experiment: Intracellular Ca2+ levels (Fluo-3AM); type: cell-based, human; details: SGC-7901, IC50 concentrations, 24 h, versus control
Description: Fluo-3AM, a Ca^2+-sensitive fluorescent probe, was used to detect the level of intracellular Ca^2+. SGC-7901 cells were incubated with IC50 concentrations of the compounds for 24 h at 37 °C. Then, the cells were washed three times with PBS, incubated with Fluo-3AM, and observed under an ImageXpress Micro XLS system (MD company, San Jose, CA, USA). The fluorescence intensity was analyzed under a high content analysis system.

SGC-7901 cells [13] = experiment: Intracellular ROS levels (DCFH-DA); type: cell-based, human; details: SGC-7901, IC50 concentrations, 24 h, versus control
Description: SGC-7901 cells were seeded in 12-well plate at a density of 1.5 × 10^5 cells per well for 24 h. Then, the medium was replaced with medium containing compounds for 24 h. After treatment, the medium was removed and washed three times with PBS, and the cells were stained with 20 μM DCFH-DA for 30 min in the dark. Finally, the cells were imaged under ImageXpress Mico XLS system (MD company, San Jose, CA, USA).

BEL-7402 = experiment: MTT in vitro cytotoxicity assay, BEL-7402; type: cell-based; details: Homo sapiens, 48 h
Description: as §1, §2

pKa [2]: 7.48 | logP [3]: 0.822 | stability in PBS ([11]; UV-Vis spectra at 0 and 48 h): stable in PBS | solubility in PBS ([11]; precipitate observed at 48 h): low solubility in PBS
Structure (SMILES): COC(=O)c1ccc2c(ccc3oc4cccc(CCC(=O)O)c4c(=O)c32)c1 [Compound 3b, 3-(3-methoxycarbonyl-12-oxo-12H-benzo[a]xanthen-11-yl)propanoic acid]
IC50 (HeLa): 68 ± 9.28 µM | GSH concentration (SGC-7901 cells [1]): 69.96 µM | IC50 (LO2): 38.1 ± 0.41 µM | Stern-Volmer constant (Ksv) (calf thymus DNA (CT-DNA) [4]): 2.20 (±0.12) × 10^3 M^−1 | relative viscosity of CT-DNA with increasing compound concentration (calf thymus DNA (CT-DNA) [5]): increased | Percentage in the cell G0/G1 (SGC-7901 cells [6]): 74.6% | Percentage in the cell G2/M (SGC-7901 cells [6]): 17.4% | increase in the cell at G0/G1 phase (SGC-7901 cells [6]; versus control): 17.7% | cellular uptake (SGC-7901 cells [7]): enter the cytoplasm and accumulate in the nuclei | ratio of red/green fluorescence (R), JC-1 (SGC-7901 cells [8]): 3.01 | P38 MAPK expression (P38 MAPK): significantly upregulated | IC50 (A549): 51.5 ± 13.7 µM | IC50 (SGC-7901): 45.6 ± 6.5 µM | MDA (SGC-7901 cells [9]): 5.58 nmol/mg | ATP concentration (SGC-7901 cells [10]): 3.30 µM | expression of CRT, HSP70 and HMGB1 (CRT, HSP70 and HMGB1): increased | increase of Flu-3-AM fluorescence intensity (intracellular Ca2+) (SGC-7901 cells [12]): 1.67 times | increase of DCF fluorescence intensity (SGC-7901 cells [13]): about 60.5% | IC50 (BEL-7402): > 100 µM

Structure (SMILES): O=C(O)CCc1cccc2oc3ccc4ccccc4c3c(=O)c12 [Compound 3a, 3-(12-oxo-12H-benzo[a]xanthen-11-yl)propanoic acid]
IC50 (HeLa): > 100 µM | IC50 (LO2): > 100 µM | IC50 (A549): > 100 µM | IC50 (SGC-7901): > 100 µM | IC50 (BEL-7402): > 100 µM

Source: paper PMC8949258, “Synthesis, Characterization and Anticancer Efficacy Evaluation of Benzoxanthone Compounds toward Gastric Cancer SGC-7901” (Molecules, 2022)
